The source of these data is ChEMBL document CHEMBL1201862, “PubChem BioAssay data set” (2004).

Structures are written as SMILES.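 Briefly, cells in 96-well plates were exposed to five compound concentrations for 48 h, and endpoints were estimated by linear interpolation. GI50 = concentration required for 50% inhibition of growth.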 Calls of active or inactive are those of the source. No stated cut-off is given here; in the data, active = GI50 up to about 1.1 µM and inactive = higher.

Test systems include A498; BT-549; CAKI-1; CCRF-CEM; DU-145; HCC 2998; HCT-15; M14; NCI-H226; NCI-H460; OVCAR-4; OVCAR-5; SN12C; SNB-19; SW-620; UACC-257; UO-31; IGROV-1; SK-MEL-5; SR.
Holding throughout (experiment): NCI-60 cell line screen, 48 h

As to `Cc1ccccc1N/C(=C(/C(Cl)=C(Cl)Cl)[N+](=O)[O-])n1nnc2ccccc21`, the GI50 in the assay on A498 is 19.4 µM (inactive); in the assay on BT-549, 14.1 µM (inactive); with CAKI-1, 20.4 µM (inactive); in the assay on CCRF-CEM it was 29.6 µM (inactive); in the assay with DU-145, 22.4 µM (inactive); in the assay with HCC 2998 it was 18 µM (inactive). The GI50 is 15.4 µM with HCT-15; 24.5 µM (inactive) in the assay on M14; 17.6 µM (inactive) with NCI-H226; 14.2 µM (inactive) with NCI-H460; 17.5 µM (inactive) with OVCAR-4; 16.8 µM (inactive) in the assay on OVCAR-5. Further, the GI50 with SN12C is 17 µM (inactive); with SNB-19 it was 19.6 µM (inactive); with SW-620, 15.9 µM (inactive); in the assay on UACC-257, 28.9 µM (inactive); in the assay with UO-31 it was 16.7 µM (inactive).
As to `CC1CN(C)c2ccccc2N=C1NN` (stereo not drawn), the GI50 in the assay with A498 was > 100 µM (inactive); with BT-549, > 100 µM (inactive); with CAKI-1, > 100 µM (inactive); with CCRF-CEM, 87.5 µM (inactive); with DU-145 it was > 100 µM (inactive); in the assay with HCT-15 it was more than 100 µM. The GI50 with IGROV-1, in the assay with M14, with NCI-H226, with NCI-H460, in the assay with OVCAR-4 and in the assay on OVCAR-5 was > 100 µM (inactive) each time. Also, the GI50 with SK-MEL-5, with SN12C, in the assay with SNB-19, in the assay on SW-620, in the assay with UACC-257 and with UO-31 was > 100 µM (inactive) each time.
Consider `Brc1ccc(/N=N/c2ccc3ccccc3n2)cc1`, for which the GI50 in the assay on BT-549 is 14.5 µM (inactive); in the assay with CAKI-1, 14.1 µM (inactive); in the assay with CCRF-CEM, > 100 µM (inactive); in the assay on DU-145 it was > 100 µM (inactive); in the assay with HCT-15, 35.3 µM; in the assay with IGROV-1, 21.4 µM (inactive). For the same compound, the GI50 with M14 is > 100 µM (inactive); with NCI-H226, 10.6 µM (inactive); in the assay with NCI-H460, 7.5 µM (inactive); in the assay on OVCAR-5, 64.9 µM (inactive); in the assay with SK-MEL-5 it was 20.7 µM (inactive); in the assay with SN12C, 40.4 µM (inactive). The GI50 was 15.9 µM (inactive) in the assay on SNB-19, 82.6 µM (inactive) in the assay on SW-620, 82.8 µM (inactive) in the assay with UACC-257 and 11.2 µM (inactive) in the assay on UO-31.
For `O=C1c2c(ccc3c2CCC3)CC12Cc1cc3c(cc1C2)CCC3`, the GI50 with A498 is > 100 µM (inactive); in the assay on CAKI-1, > 100 µM (inactive); with CCRF-CEM, > 100 µM (inactive); in the assay on DU-145, > 100 µM (inactive); with HCC 2998 it was > 100 µM (inactive); in the assay with HCT-15, more than 100 µM. The GI50 with IGROV-1, in the assay with M14, in the assay on NCI-H226, with NCI-H460, with OVCAR-4 and in the assay with OVCAR-5 was > 100 µM (inactive) each time. Further, the GI50 with SK-MEL-5, in the assay on SN12C, in the assay with SNB-19, with SR, in the assay on SW-620 and in the assay with UACC-257 was > 100 µM (inactive) in each case. In addition, in the assay on UO-31, the GI50 was > 100 µM (inactive).
In the case of `N#Cc1nc(-c2ccccc2C(=O)O)oc1N`, the GI50 with A498 is > 100 µM (inactive); in the assay with CAKI-1, > 100 µM (inactive); in the assay on CCRF-CEM, > 100 µM (inactive); in the assay on DU-145, > 100 µM (inactive); in the assay with HCC 2998, > 100 µM (inactive); in the assay on HCT-15, more than 100 µM. Besides, the GI50 in the assay with IGROV-1, with M14, in the assay with NCI-H226, with NCI-H460, in the assay on OVCAR-4 and in the assay with OVCAR-5 was > 100 µM (inactive) in each case. In addition, the GI50 in the assay on SK-MEL-5, in the assay on SN12C, in the assay on SNB-19, in the assay with SR, with SW-620 and with UACC-257 was > 100 µM (inactive) throughout. Further, the GI50 with UO-31 is > 100 µM (inactive).
As to `Cc1cc(C)c(C#N)c(SC(=S)NC(=O)c2ccc(Cl)cc2)n1`, the GI50 in the assay on A498, with BT-549, in the assay on CAKI-1, with CCRF-CEM, in the assay on DU-145 and in the assay on HCC 2998 was > 100 µM (inactive) in each case. Further, the GI50 in the assay with HCT-15 was more than 100 µM; with M14, > 100 µM (inactive); in the assay with NCI-H460 it was > 100 µM (inactive); in the assay with OVCAR-4 it was > 100 µM (inactive); with OVCAR-5 it was > 100 µM (inactive); with SK-MEL-5, > 100 µM (inactive). Moreover, the GI50 with SNB-19, with SW-620, with UACC-257 and with UO-31 was > 100 µM (inactive) each time.
In the case of `CC1=NOC2(C1)/C(=N/O)CCC/C2=N\O` (stereo not drawn), the GI50 in the assay on BT-549 is > 100 µM (inactive); with CAKI-1, > 100 µM (inactive); with CCRF-CEM, > 100 µM (inactive); with HCC 2998 it was > 100 µM (inactive); in the assay on HCT-15, more than 100 µM; in the assay with IGROV-1, > 100 µM (inactive). Moreover, the GI50 with M14, in the assay on NCI-H226, with NCI-H460, in the assay on OVCAR-4, in the assay on OVCAR-5 and in the assay with SK-MEL-5 was > 100 µM (inactive) in each case. Moreover, the GI50 with SN12C, in the assay on SNB-19, in the assay with SR, with SW-620, in the assay on UACC-257 and in the assay on UO-31 was > 100 µM (inactive) in each case.
Turning to `O=C(Cc1ccc(O)c(O)c1)NCc1c[nH]c2ccccc12`, the GI50 in the assay on A498 is > 100 µM (inactive); in the assay on BT-549, 43.9 µM (inactive); in the assay with CAKI-1 it was 31.2 µM (inactive); with CCRF-CEM it was 6.95 µM (inactive); in the assay on DU-145, 29.1 µM (inactive); with HCC 2998 it was 62.2 µM (inactive). For the same compound, the GI50 with HCT-15 is 61.1 µM; in the assay with M14, 35.5 µM (inactive); in the assay with NCI-H460 it was 40.6 µM (inactive); in the assay on OVCAR-4 it was 37 µM (inactive); with OVCAR-5, > 100 µM (inactive); with SK-MEL-5, 43.3 µM (inactive). In addition, the GI50 with SNB-19 was 94 µM (inactive); in the assay with SW-620 it was 92 µM (inactive); in the assay with UACC-257, 70.5 µM (inactive); in the assay with UO-31, 42.3 µM (inactive).
On to `C=C(C[N+](C)(C)C)N/N=C/c1oc(-c2ccc(OC)c(OC)c2)c(-c2ccc(OC)c(OC)c2)c1[N+](=O)[O-]`, for which the GI50 was 28.6 µM (inactive) with A498; 32.6 µM (inactive) with CAKI-1; 13.6 µM (inactive) in the assay on CCRF-CEM; 34.1 µM (inactive) in the assay on DU-145; 19.3 µM (inactive) in the assay on HCC 2998; 17.9 µM in the assay on HCT-15. The GI50 was 18.1 µM (inactive) in the assay on IGROV-1; 22.1 µM (inactive) in the assay with M14; 27.3 µM (inactive) with NCI-H226; 18.5 µM (inactive) in the assay with NCI-H460; 18.5 µM (inactive) in the assay on OVCAR-4; 19.1 µM (inactive) with OVCAR-5. For the same compound, the GI50 is 16.4 µM (inactive) in the assay on SK-MEL-5; 16.7 µM (inactive) in the assay with SN12C; 34.4 µM (inactive) in the assay on SNB-19; 4.69 µM (inactive) with SR; 18.7 µM (inactive) with SW-620; 20.2 µM (inactive) in the assay on UACC-257. In the assay on UO-31, the GI50 is 18.9 µM (inactive).
As to `CNc1nnc(CCCCCCCCc2nnc(NC)o2)o1`, the GI50 is > 100 µM (inactive) in the assay on A498; > 100 µM (inactive) in the assay on BT-549; 14.8 µM (inactive) in the assay with CAKI-1; 16.2 µM (inactive) in the assay with CCRF-CEM; > 100 µM (inactive) in the assay on DU-145; 27.8 µM with HCT-15. Also, the GI50 in the assay with IGROV-1 is > 100 µM (inactive); in the assay on M14, > 100 µM (inactive); in the assay on NCI-H226, > 100 µM (inactive); with NCI-H460 it was 42 µM (inactive); in the assay with OVCAR-4, > 100 µM (inactive); with OVCAR-5 it was > 100 µM (inactive). For the same compound, the GI50 in the assay with SK-MEL-5 is > 100 µM (inactive); in the assay on SN12C, > 100 µM (inactive); in the assay on SNB-19, > 100 µM (inactive); in the assay on SW-620, 40.7 µM (inactive); with UACC-257, 51.8 µM (inactive); with UO-31 it was > 100 µM (inactive).
Take `O=c1c(Cc2ccccc2)c(-c2ccccc2)[nH]n1C1=NCCN1`: the GI50 with A498 is > 100 µM (inactive); with BT-549 it was > 100 µM (inactive); in the assay with CAKI-1 it was 72.1 µM (inactive); with CCRF-CEM, 16.7 µM (inactive); in the assay on HCT-15 it was 7.74 µM; in the assay on IGROV-1, 36.5 µM (inactive). Also, the GI50 with M14 is 25.3 µM (inactive); in the assay with NCI-H226, 46 µM (inactive); with NCI-H460 it was 16.9 µM (inactive); in the assay with OVCAR-4, 54.2 µM (inactive); in the assay on OVCAR-5 it was 72.6 µM (inactive); in the assay with SK-MEL-5, 32.4 µM (inactive). Besides, the GI50 in the assay on SNB-19 was 76.4 µM (inactive); with SR, 22.8 µM (inactive); in the assay on SW-620, 38.6 µM (inactive); in the assay with UACC-257, 52.6 µM (inactive); with UO-31 it was 42.6 µM (inactive).
